Measurements as given in US20090263488A1, “PRESSURISED METERED DOSE INHALERS CONTAINING SOLUTIONS OF BETA-2 AGONISTS” (Chiesi Farmaceutici S.p.A., priority 2002, published 2009).

Assay: Stability study of TA 2005 HFA solution formulation in cans
Assay type: physicochemical
Conditions: HFA formulation able to deliver 4 μg per actuation; cans stored upright at 5° C.; after nine months
Procedure: A stability study on a formulation able to deliver 4 μg per actuation was initiated storing the cans upright at 5° C.

Compound: COc1ccc(C[C@@H](C)NC[C@H](O)c2ccc(O)c3[nH]c(=O)ccc23)cc1 [TA 2005, 8-hydroxy-5-[(1R)-1-hydroxy-2-[[(1R)-2-(4-methoxyphenyl)-1-methylethyl]amino]ethyl]-2(1H)-quinolinone]
- TA 2005 assay: higher than 95%
